Read-outs that look alike come from different tables or passages of the source.
Tests used:
hA2BAR = target: T1, hA2BAR (Homo sapiens, UniProt P29275); test: Radioligand binding competition, [3H]DPCPX, membranes from HEK-293-A2B cells; design: Exp. dG: unit not given here; details: for Ki: read-out: Ki hA2B; for Exp. dG: experimental binding free energy, Supplementary Table S3, unit not given (errors in kcal/mol); for % at 1 μM hA2B (percentage displacement of specific binding): [3H]DPCPX, human HEK-293 cells, n = 2
T1 construct: host or cells: HEK-293 (HEK-293-A2B) cell membranes
T1 sequence (P29275 1-332): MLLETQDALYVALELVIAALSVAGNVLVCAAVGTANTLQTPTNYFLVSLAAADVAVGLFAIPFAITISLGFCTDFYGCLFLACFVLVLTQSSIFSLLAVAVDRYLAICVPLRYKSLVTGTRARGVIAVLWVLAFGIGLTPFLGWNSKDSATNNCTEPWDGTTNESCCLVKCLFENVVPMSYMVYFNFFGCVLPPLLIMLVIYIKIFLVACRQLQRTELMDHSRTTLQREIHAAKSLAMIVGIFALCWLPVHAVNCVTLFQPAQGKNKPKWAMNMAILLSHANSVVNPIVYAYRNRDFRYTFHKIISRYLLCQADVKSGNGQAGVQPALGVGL
Description: (§1) All ligands reported in Tables 1–5 were obtained and tested as racemic mixtures. The whole set was evaluated in silico with a combination of a Rdkit[37] PAINS filter and Instant JChem from Chemaxon (https://www.chemaxon.com), to rule out the possibility that these ligands can be promiscuous pan-assay interference compounds (PAINS) and to assess their bioavailability, respectively. […] The stereoisomers of selected compounds were obtained by chiral resolution and tested at the four human AR subtypes in their enantiopure forms (Table 6).
(§2) A brief description is given below. […] Non-specific binding was determined in the presence of 10 μM R-PIA. The reaction mixture was incubated at 25 °C for 60 min. […] The reaction mixture was incubated at 25 °C for 30 min. […] The reaction mixture was incubated at 25 °C for 30 min. […] Non-specific binding was determined in the presence of 100 μM R-PIA. […] After the incubation time, membranes were washed and filtered and radioactivity was detected in a MicroBeta TriLux reader (PerkinElmer).

hA2AAR = target: T2, hA2AAR (Homo sapiens, UniProt P29274); test: Radioligand binding competition, [3H]ZM241385, membranes from HeLa-A2A cells; details: 1 μM, [3H]ZM241385, human HeLa cells, n = 2
T2 construct: expressed in transfected cells; host or cells: HeLa (HeLa-A2A) cell membranes
T2 sequence (P29274 whole entry): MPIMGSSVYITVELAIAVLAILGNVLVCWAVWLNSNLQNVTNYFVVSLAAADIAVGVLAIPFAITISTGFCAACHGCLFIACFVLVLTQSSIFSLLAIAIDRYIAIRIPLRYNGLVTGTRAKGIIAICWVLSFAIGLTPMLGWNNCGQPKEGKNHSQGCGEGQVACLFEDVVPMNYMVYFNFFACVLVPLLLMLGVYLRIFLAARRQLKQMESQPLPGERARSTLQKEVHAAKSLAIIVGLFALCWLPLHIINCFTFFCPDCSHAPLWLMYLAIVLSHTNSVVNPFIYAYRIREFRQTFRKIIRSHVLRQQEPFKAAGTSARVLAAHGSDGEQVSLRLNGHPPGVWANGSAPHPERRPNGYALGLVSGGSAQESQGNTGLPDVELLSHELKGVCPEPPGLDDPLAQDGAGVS
Description: as §1, §2

hA3AR = target: T3, hA3AR (Homo sapiens, UniProt P0DMS8); test: Radioligand binding competition, [3H]NECA, membranes from HeLa-A3 cells; details: 1 μM, [3H]NECA, human HeLa cells, n = 2
T3 construct: expressed in transfected cells; host or cells: HeLa (HeLa-A3) cell membranes
T3 sequence (P0DMS8 1-318): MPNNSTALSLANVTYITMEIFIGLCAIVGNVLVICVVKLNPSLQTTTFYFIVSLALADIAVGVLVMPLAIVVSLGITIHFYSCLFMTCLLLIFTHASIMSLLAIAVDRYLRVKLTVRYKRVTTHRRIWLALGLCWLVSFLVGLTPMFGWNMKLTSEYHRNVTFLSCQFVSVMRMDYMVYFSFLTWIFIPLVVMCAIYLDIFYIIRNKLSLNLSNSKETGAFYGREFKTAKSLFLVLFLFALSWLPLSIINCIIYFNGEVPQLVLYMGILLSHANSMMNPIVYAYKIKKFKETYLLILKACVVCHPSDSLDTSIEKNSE
Description: as §1, §2

hA1AR = target: T4, hA1AR (Homo sapiens, UniProt P30542); test: Radioligand binding competition, [3H]DPCPX, membranes from CHO-A1 cells; details: for % at 1 μM hA1 (percentage displacement of specific binding): [3H]DPCPX, human CHO cells, n = 2
T4 sequence (P30542 1-326): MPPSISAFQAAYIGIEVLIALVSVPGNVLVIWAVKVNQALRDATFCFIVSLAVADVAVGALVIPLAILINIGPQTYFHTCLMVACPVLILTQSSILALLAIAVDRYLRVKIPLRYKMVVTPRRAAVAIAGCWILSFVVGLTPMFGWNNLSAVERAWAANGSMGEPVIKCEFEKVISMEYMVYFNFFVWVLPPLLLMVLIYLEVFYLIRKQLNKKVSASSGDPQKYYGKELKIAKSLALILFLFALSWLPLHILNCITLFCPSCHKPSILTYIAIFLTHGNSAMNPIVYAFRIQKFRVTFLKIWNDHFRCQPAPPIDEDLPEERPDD
Description: as §1, §2

[1] = displacement of specific [3H]DPCPX binding in human HEK-293 cells, n = 3

| SMILES | Ki (hA2BAR; [1]) | Exp. dG (hA2BAR) | Ki (hA2BAR) | % at 1 μM hA2A (percentage displacement of specific binding) (hA2AAR) | % at 1 μM hA3 (percentage displacement of specific binding) (hA3AR) | % at 1 μM hA1 (percentage displacement of specific binding) (hA1AR) | % at 1 μM hA2B (percentage displacement of specific binding) (hA2BAR) | Ki (hA1AR; displacement of specific [3H]DPCPX binding in human CHO cells, n = 3, read-out: Ki hA1) |
| --- | --- | --- | --- | --- | --- | --- | --- | --- |
| CC1=C(C(=O)OC(C)C)[C@H](c2ccoc2)n2c(nc3cc(Cl)ccc32)N1 [(S)-16l] | – | – | – | 25% | 19% | 24% | 53% | – |
| CCOC(=O)C1=C(C)Nc2nc3cc(Br)ccc3n2[C@H]1c1ccoc1 [(S)-16s] | – | – | – | 16% | 10% | 11% | 34% | – |
| CCOC(=O)C1=C(C)Nc2nc3cc(F)c(F)cc3n2C1c1ccsc1 (centres unmarked) [14g] | 519 ± 7 nM | – | – | 1% | 5% | 1% | – | – |
| CC1=C(C(=O)OC(C)C)C(c2ccoc2)n2c(nc3cc(F)c(F)cc32)N1 (centres unmarked) [14d] | 52.9 ± 1.5 nM | – | – | 16% | 20% | 17% | – | – |
| CC1=C(C(=O)OC(C)C)C(c2cccs2)n2c(nc3cc(Cl)c(Cl)cc32)N1 (centres unmarked) [14n] | – | – | – | 4% | 9% | 1% | 1% | – |
| CCOC(=O)C1=C(C)Nc2nc3cc(Br)c(Br)cc3n2C1c1ccoc1 (centres unmarked) [14s] | – | – | – | 2% | 10% | 2% | 7% | – |
| CCOC(=O)C1=C(C)Nc2nc3cc(F)c(F)cc3n2C1c1cccs1 (centres unmarked) [14e] | – | – | – | 3% | 5% | 2% | 25% | – |
| CC1=C(C(=O)OC(C)C)C(c2cccs2)n2c(nc3cc(F)c(F)cc32)N1 (centres unmarked) [14f] | – | – | – | 1% | 10% | 1% | 1% | – |
| CCOC(=O)C1=C(C)Nc2nc3cc(Cl)c(Cl)cc3n2C1c1cccs1 (centres unmarked) [14m] | – | – | – | 1% | 11% | 2% | 9% | – |
| CCOC(=O)C1=C(C)Nc2nc3cc(F)c(F)cc3n2C1c1ccoc1 (centres unmarked) [14c] | 28.2 ± 0.8 nM | – | – | 36% | 17% | 22% | – | – |

The remaining lines, values ahead:

| Ki (hA2BAR; [1]) | Exp. dG (hA2BAR) | Ki (hA2BAR) | % at 1 μM hA2A (percentage displacement of specific binding) (hA2AAR) | % at 1 μM hA3 (percentage displacement of specific binding) (hA3AR) | % at 1 μM hA1 (percentage displacement of specific binding) (hA1AR) | % at 1 μM hA2B (percentage displacement of specific binding) (hA2BAR) | Ki (hA1AR; displacement of specific [3H]DPCPX binding in human CHO cells, n = 3, read-out: Ki hA1) | SMILES |
| --- | --- | --- | --- | --- | --- | --- | --- | --- |
| 6.6 ± 1 nM | -11.15 | < 10 nM | 29% | 2% | 10% | – | – | CCOC(=O)C1=C(C)Nc2nc3cc(F)ccc3n2C1c1ccco1 (centres unmarked) [16a] |
| 273 ± 4 nM | – | ~45 nM | 1% | 6% | 46% | – | – | CC1=C(C(=O)OC(C)C)C(c2ccco2)n2c(nc3ccc(Br)cc32)N1 (centres unmarked) [15r] |
| 14.7 ± 1.1 nM | -10.68 | – | 16% | 16% | 25% | – | – | CCOC(=O)C1=C(C)Nc2nc3cc(F)ccc3n2C1c1cocn1 (centres unmarked) [18a] |
| 7.21 ± 0.4 nM | -11.1 | < 10 nM | 43% | 4% | 31% | – | – | CCOC(=O)C1=C(C)Nc2nc3cc(Cl)ccc3n2C1c1ccoc1 (centres unmarked) [16k] |
| – | – | – | 3% | 12% | 11% | 26% | – | CC1=C(C(=O)OC(C)C)C(c2ccoc2)n2c(nc3ccc(Br)cc32)N1 (centres unmarked) [15t] |
| 25.6 ± 1.2 nM | -10.35 | – | 14% | 11% | – | – | 227 nM | CCOC(=O)C1=C(C)Nc2nc3ccc(Cl)cc3n2C1c1cocn1 (centres unmarked) [17c] |
| 537 ± 8 nM | – | – | 9% | 1% | 1% | – | – | CCOC(=O)C1=C(C)Nc2nc3cc(Br)ccc3n2C1c1ccsc1 (centres unmarked) [16w] |
| – | – | – | 9% | 3% | 7% | 48% | – | CC1=C(C(=O)OC(C)C)C(c2ccsc2)n2c(nc3ccc(Cl)cc32)N1 (centres unmarked) [15p] |
| – | – | – | 3% | 6% | 6% | 55% | – | CCOC(=O)C1=C(C)Nc2nc3cc(Br)ccc3n2C1c1cccs1 (centres unmarked) [16u] |
| – | – | – | 3% | 1% | 1% | 7% | – | CC1=C(C(=O)OC(C)C)C(c2cccs2)n2c(nc3ccc(Cl)cc32)N1 (centres unmarked) [15n] |
| – | – | – | 5% | 4% | 1% | 1% | – | CCOC(=O)C1=C(C)Nc2nc3ccc(Br)cc3n2C1c1cccs1 (centres unmarked) [15u] |
| 668 ± 6 nM | -8.419 | – | 1% | 7% | 2% | – | – | CC1=C(C(=O)OC(C)C)C(c2cccs2)n2c(nc3cc(F)ccc32)N1 (centres unmarked) [16f] |
| 724 ± 8 nM | – | – | 3% | 3% | 1% | – | – | CCOC(=O)C1=C(C)Nc2nc3cc(F)ccc3n2C1c1cccs1 (centres unmarked) [16e] |
| – | – | – | 3% | 3% | 4% | 43% | – | CCOC(=O)C1=C(C)Nc2nc3ccc(Br)cc3n2C1c1ccsc1 (centres unmarked) [15w] |
| 1030 ± 95 nM | -8.162 | – | 1% | 3% | 7% | – | – | CCOC(=O)C1=C(C)Nc2nc3ccc(F)cc3n2C1c1ccsc1 (centres unmarked) [15g] |
| – | – | – | 1% | 11% | 25% | 37% | – | CCOC(=O)C1=C(C)Nc2nc3ccc(F)cc3n2C1c1cccs1 (centres unmarked) [15e] |
